Data published in patent US20250195530A1, “POLQ INHIBITORS” (ASTRAZENECA AB, priority 2022, published 2025).

Legend:
[1] = tested on: DLD-1 BRCA2−/− cells; assay: Homologous recombination synthetic lethal inhibition of proliferation, DLD-1 BRCA2-/- (Cell Titre Glo 3D); format: cell-based; settings: Homo sapiens, DLD-1, first proliferation column (c5), taken as DLD-1 BRCA2-/-; read-out: POLQ PD Prolif Lumin (converted)
Method in brief: (§1)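 Luminescent Cell Titre Glo 3D readout, taken on day 12 for homologous-recombination-deficient DLD-1 BRCA2−/− and day 7 for the wild-type control, after compound refresh on day 6. Compounds spanned 10 μM to 0.51 nM in three-fold steps; IC50 defined as 50% reduction of average maximum signal.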

[2] = tested on: DLD-1 cells; assay: Inhibition of proliferation, DLD-1 BRCA2 wt control (Cell Titre Glo 3D); format: cell-based; settings: Homo sapiens, DLD-1, second proliferation column (c6), taken as DLD-1 BRCA2 wt; read-out: POLQ PD Prolif Lumin (converted)
Method in brief: as §1

IC50 [2] [nM]	Structure (SMILES)	IC50 [1] [nM]
> 10000	Cc1ccnc(Cn2c(-c3ccc(OC4CCS(=O)(=O)CC4)cc3Cl)nc3c(OC4(C)CC4)ncnc32)c1 [Example T335, 4-(3-chloro-4-(6-(1-methylcyclopropoxy)-9-((4-methylpyridin-2-yl)methyl)-9H-purin-8-yl)phenoxy)tetrahydro-2H-thiopyran 1,1-dioxide]	251
> 10000	Cc1ccnc(Cn2c(-c3ccc(N4C[C@H]5C[C@@H]4CN5)cc3Cl)nc3c(OC4(C)CC4)ncnc32)c1 [Example T336, 8-(4-((1R,4R)-2,5-diazabicyclo[2.2.1]heptan-2-yl)-2-chlorophenyl)-6-(1-methylcyclopropoxy)-9-((4-methylpyridin-2-yl)methyl)-9H-purine]	1580
> 10000	Cc1ccnc(Cn2c(-c3ccc(C(=O)N4CCNCC4)cc3Cl)nc3c(OC4(C)CC4)ncnc32)c1 [Example T337, (3-chloro-4-(6-(1-methylcyclopropoxy)-9-((4-methylpyridin-2-yl)methyl)-9H-purin-8-yl)phenyl)(piperazin-1-yl)methanone]	5010
> 10000	Cc1ccnc(Cn2c(-c3ccc(NC(=O)N4CC[C@@H](O)C4)cc3Cl)nc3c(OC4(C)CC4)ncnc32)c1 [Example T342, (R)-N-(3-chloro-4-(6-(1-methylcyclopropoxy)-9-((4-methylpyridin-2-yl)methyl)-9H-purin-8-yl)phenyl)-3-hydroxypyrrolidine-1-carboxamide]	> 3980
10000	CC1(Oc2ncnc3c2nc(-c2ccc(OCCN4CCNCC4)cc2Cl)n3Cc2nccc(Cl)c2F)CC1 [Example T345, 9-((4-chloro-3-fluoropyridin-2-yl)methyl)-8-(2-chloro-4-(2-(piperazin-1-yl)ethoxy)phenyl)-6-(1-methylcyclopropoxy)-9H-purine]	794
> 10000	CC1(Oc2ncnc3c2nc(-c2ccc(OCCN4CCNCC4)cc2Cl)n3Cc2cc(Cl)c(F)cn2)CC1 [Example T346, 8-(2-chloro-4-(2-(piperazin-1-yl)ethoxy)phenyl)-9-((4-chloro-5-fluoropyridin-2-yl)methyl)-6-(1-methylcyclopropoxy)-9H-purine]	1580
> 7940	CC1(Oc2ncnc3c2nc(-c2ccc(OCCCN4CC(O)C4)cc2Cl)n3Cc2cc(Cl)ccn2)CC1 [Example T347, 1-(3-(3-chloro-4-(9-((4-chloropyridin-2-yl)methyl)-6-(1-methylcyclopropoxy)-9H-purin-8-yl)phenoxy)propyl)azetidin-3-ol]	158
> 10000	CC1(Oc2ncnc3c2nc(-c2ccc(OCCN4CCNCC4)cc2Br)n3Cc2cc(Cl)ccn2)CC1 [Example T348, 8-(2-bromo-4-(2-(piperazin-1-yl)ethoxy)phenyl)-9-((4-chloropyridin-2-yl)methyl)-6-(1-methylcyclopropoxy)-9H-purine]	126
> 10000	CC1(Oc2ncnc3c2nc(-c2ccc(OCCN4CCNCC4)cc2F)n3Cc2cc(Cl)ccn2)CC1 [Example T349, 9-((4-chloropyridin-2-yl)methyl)-8-(2-fluoro-4-(2-(piperazin-1-yl)ethoxy)phenyl)-6-(1-methylcyclopropoxy)-9H-purine]	631
> 10000	CN(C)CCCOc1ccc(-c2nc3c(OC4(C)CC4)ncnc3n2Cc2cc(C(F)F)ccn2)c(Cl)c1 [Example T352, 3-(3-chloro-4-(9-((4-(difluoromethyl)pyridin-2-yl)methyl)-6-(1-methylcyclopropoxy)-9H-purin-8-yl)phenoxy)-N,N-dimethylpropan-1-amine]	158
> 10000	Cc1ccnc(Cn2c(-c3ccc(CN4CC[C@@H](O)C4)cc3Cl)nc3c(OC4(C)CC4)ncnc32)c1 [Example T353, (R)-1-(3-chloro-4-(6-(1-methylcyclopropoxy)-9-((4-methylpyridin-2-yl)methyl)-9H-purin-8-yl)benzyl)pyrrolidin-3-ol]	316
> 10000	Cc1ccnc(Cn2c(-c3ccc(OC4CCNCC4)cc3Cl)nc3c(OC4(C)CC4)ncnc32)c1 [Example T354, 8-(2-chloro-4-(piperidin-4-yloxy)phenyl)-6-(1-methylcyclopropoxy)-9-((4-methylpyridin-2-yl)methyl)-9H-purine]	501
> 10000	Cc1ccnc(Cn2c(-c3ccc(CCN4CC(O)C4)cc3Cl)nc3c(OC4(C)CC4)ncnc32)c1 [Example T355, 1-(3-chloro-4-(6-(1-methylcyclopropoxy)-9-((4-methylpyridin-2-yl)methyl)-9H-purin-8-yl)phenethyl)azetidin-3-ol]	631
> 10000	Cc1ccnc(Cn2c(-c3ccc(OC[C@H]4CCCN4)cc3Cl)nc3c(OC4(C)CC4)ncnc32)c1 [Example T356, (R)-8-(2-chloro-4-(pyrrolidin-2-ylmethoxy)phenyl)-6-(1-methylcyclopropoxy)-9-((4-methylpyridin-2-yl)methyl)-9H-purine]	200
> 10000	Cc1ccnc(Cn2c(-c3ccc(CC(=O)NC(C)C)cc3Cl)nc3c(OC4(C)CC4)ncnc32)c1 [Example T357, 2-(3-chloro-4-(6-(1-methylcyclopropoxy)-9-((4-methylpyridin-2-yl)methyl)-9H-purin-8-yl)phenyl)-N-isopropylacetamide]	398
> 10000	Cc1cnc(Cn2c(-c3ccc(OC4CC5(C4)CN(C)C5)cc3Cl)nc3c(OC4(C)CC4)ncnc32)s1 [Example T359, 2-((8-(2-chloro-4-((2-methyl-2-azaspiro[3.3]heptan-6-yl)oxy)phenyl)-6-(1-methylcyclopropoxy)-9H-purin-9-yl)methyl)-5-methylthiazole]	501
> 10000	Cc1ccnc(Cn2c(-c3cccc(OCCN4CC(O)C4)c3Cl)nc3c(OC4(C)CC4)ncnc32)c1 [Example T360, 1-(2-(2-chloro-3-(6-(1-methylcyclopropoxy)-9-((4-methylpyridin-2-yl)methyl)-9H-purin-8-yl)phenoxy)ethyl)azetidin-3-ol]	794
> 10000	Cc1ccnc(Cn2c(-c3ccc(C(=O)NCC(C)(C)O)cc3Cl)nc3c(OC4(C)CC4)ncnc32)c1 [Example T363, 3-chloro-N-(2-hydroxy-2-methylpropyl)-4-(6-(1-methylcyclopropoxy)-9-((4-methylpyridin-2-yl)methyl)-9H-purin-8-yl)benzamide]	794
> 10000	Cc1ccnc(Cn2c(-c3ccc(CC(=O)N(C)CCO)cc3Cl)nc3c(OC4(C)CC4)ncnc32)c1 [Example T369, 2-(3-chloro-4-(6-(1-methylcyclopropoxy)-9-((4-methylpyridin-2-yl)methyl)-9H-purin-8-yl)phenyl)-N-(2-hydroxyethyl)-N-methylacetamide]	1000
> 10000	Cc1ccnc(Cn2c(-c3ccc(CC(=O)NC[C@H](C)O)cc3Cl)nc3c(OC4(C)CC4)ncnc32)c1 [Example T371, (S)-2-(3-chloro-4-(6-(1-methylcyclopropoxy)-9-((4-methylpyridin-2-yl)methyl)-9H-purin-8-yl)phenyl)-N-(2-hydroxypropyl)acetamide]	1000
> 7940	CN(C)CCCOc1ccc(-c2nc3c(OC4(C)CC4)nccc3n2Cc2cc(Cl)ccn2)c(Cl)c1 [Example T377, 3-(3-chloro-4-(1-((4-chloropyridin-2-yl)methyl)-4-(1-methylcyclopropoxy)-1H-imidazo[4,5-c]pyridin-2-yl)phenoxy)-N,N-dimethylpropan-1-amine]	158
> 10000	CC1(Oc2ncnc3c2nc(-c2ccc(OCCN4CCNCC4)cc2Cl)n3Cc2ccnc(Cl)c2)CC1 [Example T378, 8-(2-chloro-4-(2-(piperazin-1-yl)ethoxy)phenyl)-9-((2-chloropyridin-4-yl)methyl)-6-(1-methylcyclopropoxy)-9H-purine]	1580
> 10000	CC1(Oc2ncnc3c2nc(-c2ccc(OCCN4CCNCC4)cc2Cl)n3Cc2cncc(Cl)c2)CC1 [Example T379, 8-(2-chloro-4-(2-(piperazin-1-yl)ethoxy)phenyl)-9-((5-chloropyridin-3-yl)methyl)-6-(1-methylcyclopropoxy)-9H-purine]	251
> 10000	CC1(Oc2ncnc3c2nc(-c2ccc(OCCN4CCN(S(=O)(=O)O)CC4)cc2Cl)n3Cc2cc(Cl)ccn2)CC1 [Example T380, 4-(2-(3-chloro-4-(9-((4-chloropyridin-2-yl)methyl)-6-(1-methylcyclopropoxy)-9H-purin-8-yl)phenoxy)ethyl)piperazine-1-sulfonic acid]	7940
> 10000	Cc1ccnc(Cn2c(-c3ccc(OCCC(C)(C)O)cc3Cl)nc3c(OC4(C)CC4)ncnc32)c1 [Example T382, 4-(3-chloro-4-(6-(1-methylcyclopropoxy)-9-((4-methylpyridin-2-yl)methyl)-9H-purin-8-yl)phenoxy)-2-methylbutan-2-ol]	100
> 10000	Cc1ccnc(Cn2c(-c3ccc(OCCCN(C)C)cc3Cl)nc3c(OC4(C)CC4)ncnc32)c1 [Example T385, 3-(3-chloro-4-(6-(1-methylcyclopropoxy)-9-((4-methylpyridin-2-yl)methyl)-9H-purin-8-yl)phenoxy)-N,N-dimethylpropan-1-amine]	79.4
> 10000	Cc1ccnc(Cn2c(-c3cccc(OCCCN(C)C)c3Cl)nc3c(OC4(C)CC4)ncnc32)c1 [Example T386, 3-(2-chloro-3-(6-(1-methylcyclopropoxy)-9-((4-methylpyridin-2-yl)methyl)-9H-purin-8-yl)phenoxy)-N,N-dimethylpropan-1-amine]	100
